Entries after “also recorded” stand apart in the source; their conditions may differ. Structures can show the parent of a compound that is named as a salt.
How the values were obtained:
[1] = Storage stability at room temperature and 10%-90% RH for 4 months; assay type: physicochemical; details: room temperature
[2] = Crystalline stability at 130° C. for 1 day by XRPD (Comparative Example 2); assay type: physicochemical; details: for crystalline form after being stored at 130° C. for 1 day: XRPD
Protocol: The ABT-199 monohydrochloride Form B prepared by the present invention was compared with the known ABT-199 hydrochloride Form II prepared according to the Preparation Example 2. In specific, 30 mg samples were placed at 130° C. for 1 day, and XRPD was carried out to investigate the crystalline stability.

[3] = cited from earlier work
[4] = Water solubility test (Comparative Example 4); assay type: physicochemical; details: 25° C.
Protocol: The ABT-199 dihydrochloride Form 1 prepared by the invention and the known ABT-199 hydrochloride Form II prepared according to the Preparation Example 2 were tested for water solubility. In specific, 10 mg sample was placed in a 20 mL glass bottle, and added with 10 mL deionized water at 25° C. to form a suspension, which was stirred for 24 hours at 25° C., filtered, and detected by HPLC, and the solubility of the sample in water was calculated.

[5] = Slurry competition experiment for crystalline form stability (Comparative Example 3); assay type: physicochemical; details: for crystalline form in slurry competition experiment: water-saturated ethyl acetate, 3 days, room temperature or 40° C.
Protocol: The ABT-199 monohydrochloride Form C prepared by the invention and the known ABT-199 hydrochloride Form II prepared by Preparation Example 2 were used for the competition experiment to test the crystalline form stability. In specific, 20 mg ABT-199 Form II and 20 mg ABT-199 monohydrochloride Form C samples were added to the same water-saturated ethyl acetate to form slurries, which were stirred for 3 days at room temperature or at 40° C., then the samples were analyzed by XRPD to investigate their crystalline form stability.

[6] = Water solubility test (Comparative Example 1); assay type: physicochemical
Protocol: The ABT-199 monohydrochloride Form A prepared in the present invention was compared with the known ABT-199 hydrochloride Form II prepared according to the Preparation Example 2 in a water solubility test. In specific, 10 mg sample was placed in a 50 mL glass bottle, and added with 10 mL deionized water dropwisely at 25° C. to form a suspension. The suspension was treated with ultrasonics until the suspension was stirred for 24 hours and the sample was almost dissolved, the resultant solution was filtered and subject to HPLC detection, and the sample solubility in water was calculated.

[7] = slurry of Form II and Form C in water-saturated ethyl acetate, XRPD

Q: Which results are given for CC1(C)CCC(CN2CCN(c3ccc(C(=O)NS(=O)(=O)c4ccc(NCC5CCOCC5)c([N+](=O)[O-])c4)c(Oc4cnc5[nH]ccc5c4)c3)CC2)=C(c2ccc(Cl)cc2)C1 [ABT-199 monohydrochloride Form B]?
A: appearance, XRPD pattern and melting point after storage ([1]; listed as Form B): remains unchanged; high-temperature stability compared with known ABT-199 hydrochloride Form II ([2]; 130° C., 1 day): better high-temperature-stability; crystalline form after being stored at 130° C. for 1 day ([2]; 130° C., 1 day): Form B; crystalline form after being stored at 130° C. for 1 day ([2]; 130° C., 1 day, listed as Form B): does not change

Q: With CC1(C)CCC(CN2CCN(c3ccc(C(=O)NS(=O)(=O)c4ccc(NCC5CCOCC5)c([N+](=O)[O-])c4)c(Oc4cnc5[nH]ccc5c4)c3)CC2)=C(c2ccc(Cl)cc2)C1 [ABT-199 hydrochloride Form I] as the molecule, how does the “stability when exposed to air” value [3] read?
A: Its value is “easily converted to ABT-199 hydrochloride Form II”.

Q: Which “appearance, XRPD pattern and melting point after storage” value ([1]; listed as Form 1) does the source give for CC1(C)CCC(CN2CCN(c3ccc(C(=O)NS(=O)(=O)c4ccc(NCC5CCOCC5)c([N+](=O)[O-])c4)c(Oc4cnc5[nH]ccc5c4)c3)CC2)=C(c2ccc(Cl)cc2)C1 [ABT-199 dihydrochloride Form 1] here?
A: Its value is “remains unchanged”.

Q: What about the solubility at 24 h ([4]; thermodynamic from solid, deionized water, stirred 24 hours, HPLC) of the same molecule?
A: The solubility at 24 h was roughly 50 µg/mL.

Q: What about the “solubility in water compared with known ABT-199 hydrochloride Form II” value [4] of the same molecule?
A: The value was “higher solubility”.

Q: What about the “solubility in water compared with known ABT-199 hydrochloride Form II” value ([4]; listed as Form 1) of the same molecule?
A: Its value is “higher”.

Q: What does the source list for CC1(C)CCC(CN2CCN(c3ccc(C(=O)NS(=O)(=O)c4ccc(NCC5CCOCC5)c([N+](=O)[O-])c4)c(Oc4cnc5[nH]ccc5c4)c3)CC2)=C(c2ccc(Cl)cc2)C1 [ABT-199 monohydrochloride Form C]?
A: appearance, XRPD pattern and melting point after storage ([1]; listed as Form C): remains unchanged; crystalline form after stirring at 40° C. for 3 days [5, 7]: Form C; crystalline form after stirring at room temperature for 3 days ([5]; slurry of Form II and Form C in water-saturated ethyl acetate, room temperature, XRPD): Form C; crystalline form in slurry competition experiment [5]: remains unchanged

Q: With CC1(C)CCC(CN2CCN(c3ccc(C(=O)NS(=O)(=O)c4ccc(NCC5CCOCC5)c([N+](=O)[O-])c4)c(Oc4cnc5[nH]ccc5c4)c3)CC2)=C(c2ccc(Cl)cc2)C1.Cl [ABT-199 hydrochloride Form II, reference compound] as the molecule, how does the solubility ([4]; deionized water, stirred 24 hours, HPLC) read?
A: Its solubility is “About 20 μg/mL”.

Q: What about the “crystalline form after being stored at 130° C. for 1 day” value ([2]; 130° C., 1 day, listed as ABT-199 monohydrochloride Form II) of the same molecule?
A: The value was “changes; also recorded: Phase transition occurred”.

Q: And the “stability at high temperature (in words)” value ([2]; high temperature)?
A: Its value is “poor stability at high temperature”.

Q: And the solubility ([6]; deionized water, 25° C., 24 hours, HPLC)?
A: The solubility was “About 20 μg/mL”.

Q: What about the “solubility in water (in words)” value ([6]; water) of the same molecule?
A: The value was “low solubility in water”.

Q: What about the “crystalline form after stirring at 40° C. for 3 days” value [5, 7] of the same molecule?
A: Its value is “Convered to Form C”.

Q: And the “crystalline form in slurry competition experiment” value [5]?
A: Its value is “changed to Form C”.

Q: What about the “crystalline form in slurry competition experiment” value ([5]; listed as ABT-199 monohydrochloride Form II) of the same molecule?
A: The value was “converted to Form C”.

Q: Which results are given for CC1(C)CCC(CN2CCN(c3ccc(C(=O)NS(=O)(=O)c4ccc(NCC5CCOCC5)c([N+](=O)[O-])c4)c(Oc4cnc5[nH]ccc5c4)c3)CC2)=C(c2ccc(Cl)cc2)C1 [ABT-199 monohydrochloride Form A]?
A: appearance, XRPD pattern and melting point after storage ([1]; listed as Form A): unchanged; solubility at 24 h ([6]; thermodynamic from solid, deionized water, 25° C., 24 hours, HPLC): ~40 µg/mL; solubility in water compared with known ABT-199 hydrochloride Form II ([6]; water, 25° C.): higher solubility

Source: patent publication US10759798B2, “ABT-199 addition salt and crystal form thereof, preparation method thereof, and pharmaceutical composition thereof” (Hangzhou SoliPharma Co., Ltd, priority 2016, dated 2020)
